The record followed here is US10899738B2 (THE REGENTS OF THE UNIVERSITY OF MICHIGAN, priority 2016, dated 2021).

The term IC50 denotes the concentration needed to halve the response being measured.

In one assay the target is menin protein (Homo sapiens (Human), UniProt O00255). Description: biochemical. Type of assay: binding. The settings on record: FP competitive binding; menin protein 4 nM, FAM-MM2 probe 2 nM. On the procedure: A fluorescence polarization (FP) competitive binding assay was used to determine the binding affinities of representative menin inhibitors. A FAM labeled fluorescent probe was designed and synthesized based on a MLL1 peptide (FAM-MM2). Equilibrium dissociation constant (Kd) value of FAM-MM2 to menin protein was determined from protein saturation experiments by monitoring the total fluorescence polarization of mixtures composed with the fluorescent probe at a fixed concentration and the protein with increasing concentrations up to full saturation. Serial dilutions of the protein were mixed with FAM-MM2 to a final volume of 200 μl in the assay buffer (PBS with 0.02% Bovine γ-Globulin and 4% DMSO. 0.01% Triton X-100 was added right before assays). Final FAM-MM2 concentration was 2 nM. Plates were incubated at room temperature for 30 minutes with gentle shaking to assure equilibrium.
Chain of menin protein (O00255 whole entry): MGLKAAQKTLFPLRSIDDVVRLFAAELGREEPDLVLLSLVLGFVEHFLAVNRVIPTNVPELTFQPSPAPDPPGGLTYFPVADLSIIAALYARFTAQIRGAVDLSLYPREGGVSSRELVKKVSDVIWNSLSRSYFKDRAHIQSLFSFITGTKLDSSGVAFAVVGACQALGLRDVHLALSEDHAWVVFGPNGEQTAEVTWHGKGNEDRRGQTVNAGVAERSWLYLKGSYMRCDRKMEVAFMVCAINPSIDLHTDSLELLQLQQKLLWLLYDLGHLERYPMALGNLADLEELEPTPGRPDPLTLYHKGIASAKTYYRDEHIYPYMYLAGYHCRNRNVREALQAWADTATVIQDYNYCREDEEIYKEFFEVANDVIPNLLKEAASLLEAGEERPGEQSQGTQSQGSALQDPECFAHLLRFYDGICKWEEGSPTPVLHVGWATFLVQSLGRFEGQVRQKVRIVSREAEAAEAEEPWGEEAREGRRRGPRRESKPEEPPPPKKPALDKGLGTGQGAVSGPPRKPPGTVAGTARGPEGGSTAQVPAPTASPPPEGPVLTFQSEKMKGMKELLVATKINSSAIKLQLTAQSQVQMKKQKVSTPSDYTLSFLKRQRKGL
The IC50, see Table 3, and Ki values of representative Compounds of the Disclosure were determined in a competitive binding experiment. Mixtures of 5 μl of the tested compounds in DMSO and 195 μl of preincubated protein/probe complex solution in the assay buffer were added into assay plates which were incubated at room temperature for 30 minutes with gentle shaking. Final concentration of the menin protein was 4 nM, and final probe concentration is 2 nM. […] FP values were measured as described above. IC50 values were determined by nonlinear regression fitting of the competition curves.
Turning to `O=S(=O)(c1ccc(-n2ccc(CN3CCC(C4(C5CCCC5)NCCc5c(F)cccc54)CC3)c2)cc1)C1CC1` (centres unmarked) [compound 123, 1-cyclopentyl-1-(1-((1-(4-(cyclopropylsulfonyl)phenyl)-1H-pyrrol-3-yl)methyl)piperidin-4-yl)-5-fluoro-1,2,3,4-tetrahydroisoquinoline], the “Menin Binding Affinity IC50 (μM)” value is listed as “No inhibition”.

Staying with this assay, now noted: FP competitive binding; menin protein 4 nM, FAM-MM2 probe 2 nM; read-out: Menin Binding Affinity IC50.
Regarding `N#Cc1ccc(OCCCN2CCC(C3(C4CCCS4(=O)=O)NCCc4ccccc43)CC2)cc1` (centres unmarked) [compound 304, 4-(3-(4-(1-(1,1-dioxidotetrahydrothiophen-2-yl)-1,2,3,4-tetrahydroisoquinolin-1-yl)piperidin-1-yl)propoxy)benzonitrile], the IC50 stood at 10700 nM.

For `CC(=O)O[C@@H]1CCC[C@H]1C(C#N)(c1ccccc1)C1CCN(CC2CN(c3ccc(S(C)(=O)=O)cc3)C2)CC1` (mixture of isomers) [compound 184, rac-(1R,2S)-2-(cyano(1-((1-(4-(methylsulfonyl)phenyl)azetidin-3-yl)methyl)piperidin-4-yl)(phenyl)methyl)cyclopentyl actate], the IC50 was 2600 nM.

On to `O=S(=O)(c1ccncc1)c1ccc(N2CC(CN3CCC(C4(C5CCCC5)CN(Cc5ccncc5)Cc5ccccc54)CC3)C2)cc1` (centres unmarked) [compound 53, 4-cyclopentyl-2-(pyridin-4-ylmethyl)-4-(1-((1-(4-(pyridin-4-ylsulfonyl)phenyl)azetidin-3-yl)methyl)piperidin-4-yl)-1,2,3,4-tetrahydroisoquinoline], for which the IC50 was 1100 nM.

As for `CNC(=O)N[C@@H]1CCC[C@H]1C(CN)(c1ccccc1)C1CCN(CC2CN(c3ccc(S(=O)(=O)c4ccccc4)cc3)C2)CC1` (mixture of isomers) [compound 322, rac-1-((1R,2S)-2-(2-amino-1-phenyl-1-(1-((1-(4-(phenylsulfonyl)phenyl)azetidin-3-yl)methyl)piperidin-4-yl)ethyl)cyclopentyl)-3-methylurea], the IC50 was 108 nM.

For `Cc1nccn1CC(c1ccccc1)(C1CCCC1)C1CCN(CC2CN(c3ccc(S(=O)(=O)C4CC4)cc3)C2)CC1` (centres unmarked) [compound 42, 4-(1-cyclopentyl-2-(2-methyl-1H-imidazol-1-yl)-1-phenylethyl)-1-((1-(4-(cyclopropylsulfonyl)phenyl)azetidin-3-yl)methyl)piperidine], the IC50 worked out at 29 nM.

In the case of `N#Cc1ccc(OCCCN2CCC(C(C#N)(c3ccccc3)C3CCCC3)CC2)cc1` (centres unmarked) [compound 20, 4-(3-(4-(cyano(cyclopentyl)(phenyl)methyl)piperidin-1-yl)propoxy)benzonitrile], the IC50 came out at 1300 nM.

On to `CO[C@H]1CCC[C@@H]1C(C#N)(c1ccccc1)C1CCN(CCCOc2ccc(C#N)cc2)CC1` (stereo partly drawn) [compound 174, 4-(3-(4-(cyano((1R,2S)-2-methoxycyclopentyl)(phenyl)methyl)piperidin-1-yl)propoxy)benzonitrile], for which the IC50 was determined as 24600 nM.

Take `CN1CCC(C2(C3C=CCCN3)CN(C)Cc3ccccc32)CC1` (centres unmarked) [compound 167, 2-methyl-4-(1-methylpiperidin-4-yl)-4-(1,2,5,6-tetrahydropyridin-2-yl)-1,2,3,4-tetrahydroisoquinoline]: the IC50 was 172000 nM.

As to `Cc1cc(S(=O)(=O)c2ccc(N3CC(CN4CCC(C5(C6=CCCC6)CN(C)Cc6ccccc65)CC4)C3)cc2)ccn1` (centres unmarked) [compound 205, 4-(cyclopent-1-en-1-yl)-2-methyl-4-(1-((1-(4-((2-methylpyridin-4-yl)sulfonyl)phenyl)azetidin-3-yl)methyl)piperidin-4-yl)-1,2,3,4-tetrahydroisoquinoline], the IC50 turned out to be 88 nM.

As to `COC(=O)N[C@H]1CCC[C@@H]1C(C#N)(c1ccccc1)C1CCN(CC2CN(c3ccccc3)C2)CC1` (mixture of isomers) [compound 402, methyl rac-((1S,2R)-2-(cyano(phenyl)(1-((1-phenylazetidin-3-yl)methyl)piperidin-4-yl)methyl)cyclopentyl) carbamate], the IC50 amounted to 2400 nM.

As for `CC(=O)O[C@@H]1CCC[C@H]1C(C#N)(c1ccccc1F)C1CCN(CC2CN(c3ccc(S(=O)(=O)C4CC4)cc3)C2)CC1` (mixture of isomers) [compound 311, rac-(1R,2S)-2-(cyano(1-((1-(4-(cyclopropylsulfonyl)phenyl)azetidin-3-yl)methyl)piperidin-4-yl)(2-fluorophenyl)methyl) cyclopentyl acetate], the IC50 was determined as 5700 nM.

In the case of `N#Cc1ccc(N2CCCC(CN3CCC(C4(C5CCCC5)NCCc5ccccc54)CC3)C2)cc1` (centres unmarked) [compound 115, 4-(3-((4-(1-cyclopentyl-1,2,3,4-tetrahydroisoquinolin-1-yl)piperidin-1-yl)methyl)piperidin-1-yl)benzonitrile], the concentration for half-maximal inhibition (IC50) turned out to be 4000 nM.

Turning to `N#CC(c1ccccc1)(C1CCN(CC2CN(c3ccc(S(=O)(=O)c4ccncc4)cc3)C2)CC1)[C@@H]1CCC[C@H]1OC(=O)C1CCC1` (mixture of isomers) [compound 208, rac-(1R,2S)-2-(cyano(phenyl)(1-((1-(4-(pyridin-4-ylsulfonyl)phenyl)azetidin-3-yl)methyl)piperidin-4-yl)methyl)cyclopentyl cyclobutanecarboxylate], the IC50 was 435 nM.

With `CO[C@H]1CCC[C@@H]1C1(C2CCN(CCCOc3ccc(C#N)cc3)CC2)CN(C)Cc2ccccc21` (mixture of isomers) [compound 325, rac-4-(3-(4-(4-((1R,2S)-2-methoxycyclopentyl)-2-methyl-1,2,3,4-tetrahydroisoquinolin-4-yl)piperidin-1-yl)propoxy)benzonitrile], the IC50 turned out to be 1800 nM.

As to `N#Cc1ccc(OCCCN2CCC(C3(C4CCCC4)NCCc4sccc43)CC2)cc1` (centres unmarked) [compound 32, 4-(3-(4-(4-cyclopentyl-4,5,6,7-tetrahydrothieno[3,2-c]pyridin-4-yl)piperidin-1-yl)propoxy)benzonitrile], the IC50 was 59 nM.

Regarding `O=S(=O)(c1ccc(N2CC(F)(CN3CCC(C4(C5CCCC5)NCCc5ccccc54)CC3)C2)cc1)C1CC1` (centres unmarked) [compound 140, 1-cyclopentyl-1-(1-((1-(4-(cyclopropylsulfonyl)phenyl)-3-fluoroazetidin-3-yl)methyl)piperidin-4-yl)-1,2,3,4-tetrahydroisoquinoline], the IC50 came to 104 nM.

For `CO[C@H]1CCC[C@@H]1C(C#N)(c1ccccc1)C1CCN(CC2CN(c3ccc(S(C)(=O)=O)cc3)C2)CC1` (mixture of isomers) [compound 181, rac-2-((1R,2S)-2-methoxycyclopentyl)-2-(1-((1-(4-(methylsulfonyl)phneyl)azetidin-3-yl)methyl)piperidin-4-yl)-2-phenylacetonitrile], the IC50 was found to be 18100 nM.

Consider `CC(=O)N[C@@H]1CCC[C@H]1C(C#N)(c1ccccc1)C1CCN(CC2CN(c3ccc(S(=O)(=O)c4ccncc4)cc3)C2)CC1` (mixture of isomers) [compound 264, rac-N-((1R,2S)-2-(cyano(phenyl)(1-((1-(4-(pyridin-4-ylsulfonyl)phenyl)azetidin-3-yl)methyl)piperidin-4-yl)methyl)cyclopentyl) acetamide], for which the IC50 came out at 555 nM.

`CC(=O)O[C@@H]1CCC[C@H]1C(C#N)(c1cccc(F)c1)C1CCN(CC2CN(c3ccc(C#N)cc3)C2)CC1` (mixture of isomers) [compound 416, rac-(1R,2S)-2-(cyano(1-((1-(4-cyanophenyl)azetidin-3-yl)methyl)piperidin-4-yl)(3-fluorophenyl)methyl) cyclopentyl acetate]: the IC50 worked out at 3280 nM.

Turning to `CNC(=O)O[C@@H]1CCC[C@H]1C(C#N)(c1ccccc1)C1CCN(CCCOc2ccc(C#N)cc2)CC1` (mixture of isomers) [compound 233, rac-(1R,2S)-2-(cyano(1-(3-(4-cyanophenoxy)propyl)piperidin-4-yl)(phenyl)methyl)cyclopentyl methylcarbamate], the IC50 came out at 178 nM.

Take `Cc1cc(C#N)ccc1N1CC(CN2CCC(C3(C4CCCC4)NCCc4ccccc43)CC2)C1` (centres unmarked) [compound 138, 4-(3-((4-(1-cyclopentyl-1,2,3,4-tetrahydroisoquinolin-1-yl)piperidin-1-yl)methyl)azetidin-1-yl)-3-methylbenzonitrile]: the IC50 is 99 nM.

In the case of `N#Cc1ccc(OCCCN2CCC(C3(CC4CCCCC4)NCCc4ccccc43)CC2)cc1` (centres unmarked) [compound 251, 4-(3-(4-(1-(cyclohexylmethyl)-1,2,3,4-tetrahydroisoquinolin-1-yl)piperidin-1-yl)propoxy)benzonitrile], the IC50 is 7100 nM.

Consider `CS(=O)(=O)N[C@@H]1CCC[C@H]1C(C#N)(c1ccccc1)C1CCN(CC2CN(c3ccc(S(=O)(=O)c4ccncc4)cc3)C2)CC1` (mixture of isomers) [compound 268, rac-N-((1R,2S)-2-(cyano(phenyl)(1-((1-(4-(pyridin-4-ylsulfonyl)phenyl)azetidin-3-yl)methyl)piperidin-4-yl)methyl)cyclopentyl) methanesulfonamide], for which the IC50 was 4700 nM.

Regarding `COC(=O)N1Cc2ccccc2C(C2CCN(CCCOc3ccc(C#N)cc3)CC2)([C@@H]2CCC[C@H]2OC)C1` (mixture of isomers) [compound 323, methyl rac-4-(1-(3-(4-cyanophenoxy)propyl)piperidin-4-yl)-4-((1S,2R)-2-methoxycyclopentyl)-3,4-dihydroisoquinoline-2(1H)-carboxylate], the IC50 was found to be 10400 nM.

As to `CO[C@H]1CCC[C@H]1C(C#N)(c1ccccc1)C1CCN(CCCOc2ccc(C#N)cc2)CC1` (mixture of isomers) [compound 176, rac-4-(3-(4-(cyano((1S,2S)-2-methoxycyclopentyl)(phenyl)methyl)piperidin-1-yl)propoxy)benzonitrile], the IC50 stood at 140000 nM.
